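Grown in 96-well plates, cells were treated for 48 hours with each compound at five concentrations. Insufficient inhibition: endpoint recorded as highest concentration tested. TGI: concentration producing complete growth inhibition.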
How the values were obtained:
Test in all cases: growth of human tumour cells (NCI), 48 h
[1] = test system: OVCAR-3 ovarian
[2] = test system: HL-60(TB) leukemia
[3] = test system: NCI/ADR-RES ovarian
[4] = test system: A498 renal
[5] = test system: SK-MEL-2 melanoma
[6] = test system: SN12C renal
[7] = test system: ACHN renal
[8] = test system: RXF 393 renal
[9] = test system: UO-31 renal
[10] = test system: HCT-15 colon
[11] = test system: NCI-H226 lung
[12] = test system: UACC-62 melanoma
[13] = test system: HS 578T breast
[14] = test system: K-562 leukemia
[15] = test system: M14 melanoma
[16] = test system: OVCAR-8 ovarian
[17] = test system: MALME-3M melanoma
[18] = test system: MDA-MB-231 breast
[19] = test system: NCI-H23 lung
[20] = test system: SNB-75 CNS

Row | SMILES | TGI [1] [µM] | TGI [2] [µM] | TGI [3] [µM] | TGI [4] [µM] | TGI [5] [µM] | TGI [6] [µM] | TGI [7] [µM] | TGI [8] [µM] | TGI [9] [µM] | TGI [10] [µM] | TGI [11] [µM] | TGI [12] [µM] | TGI [13] [µM] | TGI [14] [µM] | TGI [15] [µM] | TGI [16] [µM] | TGI [17] [µM] | TGI [18] [µM] | TGI [19] [µM] | TGI [20] [µM]
1 | CSC1=NC(C(N)=O)C(N)N1C (stereo not drawn) | > 100 | > 100 | > 100 | > 100 | > 100 | > 100 | > 100 | > 100 | > 100 | > 100 | > 100 | > 100 | > 100 | > 100 | > 100 | > 100 | > 100 | > 100 | > 100 | –
2 | O=C1C(c2c(O)[nH]c3ccc(S(=O)(=O)O)cc23)=Nc2ccc(Br)cc21 | > 100 | > 100 | > 100 | > 100 | > 100 | > 100 | > 100 | > 100 | > 100 | > 100 | > 100 | > 100 | > 100 | > 100 | > 100 | > 100 | > 100 | > 100 | > 100 | > 100
3 | C=C1CCCCCCCCCCC12SCCC2CCCCSC (stereo not drawn) | 34.1 | 44.7 | 46.2 | 35.8 | 37.7 | 53.9 | 38.9 | 50.4 | 60.4 | 73.4 | 36.2 | 76 | > 100 | 44 | 50.1 | 56.4 | 36.2 | 39 | 56.9 | –
4 | O=c1ssc(Cl)c1Nc1c(Cl)ssc1=O | 39.4 | 35.1 | 71.4 | 31.7 | 37.6 | 37.9 | > 54.3 | 28.3 | 32.4 | 39.6 | 79 | > 55 | > 100 | 15.3 | 39.8 | 51.3 | 37.7 | 41.1 | 38.8 | 46.5
5 | COc1cc(=O)n2c3ccccc3n(C)c2c1C#N | > 100 | > 100 | > 100 | > 100 | > 100 | > 100 | > 100 | > 100 | > 100 | > 100 | > 100 | > 100 | > 100 | > 100 | > 100 | > 100 | > 100 | > 100 | > 100 | > 100
6 | Nc1c(-c2nc3ccccc3o2)sc(=S)n1-c1ccc(Cl)cc1 | 38.1 | > 100 | 74.1 | 99.7 | 47.8 | > 100 | 24.1 | 66.8 | > 100 | > 100 | 67.1 | 27.8 | 46.4 | > 100 | > 100 | 30.2 | 56.5 | 64.5 | 37.8 | –
7 | Oc1ccc2oc3c(O)c4ccccc4cc3c2c1 | 15.1 | 13.5 | 9.74 | 9.33 | 93 | 8.32 | 21 | 16.9 | 15.8 | 21.3 | – | 1.67 | > 100 | 1.3 | 21.7 | 16.5 | 33.4 | 36 | 65.3 | –
8 | CN1C(=O)N/C(=C\c2ccc(S(=O)(=O)N/N=C\C(O)C(O)C(O)CO)cc2)C1=O (stereo not drawn) | > 100 | > 100 | > 100 | > 100 | > 100 | > 100 | > 100 | > 100 | > 100 | > 100 | – | > 100 | > 100 | > 100 | > 100 | > 100 | > 100 | > 100 | > 100 | > 100
9 | Cc1ccc(S(=O)(=O)/N=C(\N)N(C)N=O)cc1 | > 100 | > 100 | > 100 | > 100 | > 100 | > 100 | – | > 100 | > 100 | > 100 | > 100 | > 100 | > 100 | > 100 | > 100 | > 100 | > 100 | > 100 | > 100 | > 100
10 | Cc1ccc(/C(=C\C(=O)C(=O)NC23CC4CC(CC(C4)C2)C3)Sc2ccccc2)cc1 | > 10 | > 10 | > 10 | > 10 | > 10 | > 10 | > 10 | > 10 | > 10 | > 10 | > 10 | – | > 10 | > 10 | > 10 | > 10 | > 10 | > 10 | > 10 | > 10
11 | COc1ccc(OC)c(C23CCCC(C2)N(C)CC3)c1 (stereo not drawn) | 46.7 | – | > 100 | 89.9 | 53 | > 100 | 78.1 | 61.2 | > 100 | > 100 | – | 46 | > 100 | 43 | 34.1 | – | – | > 100 | > 100 | –
12 | O=C(CC(C(=O)c1ccco1)c1cccs1)c1cccs1 (stereo not drawn) | > 100 | 60.3 | > 100 | > 100 | > 100 | > 100 | > 100 | > 100 | > 100 | > 100 | > 100 | > 100 | > 100 | – | > 100 | > 100 | > 100 | > 100 | > 100 | > 100
13 | N#Cc1c(NCCc2ccc(F)cc2)c2ccccc2n2c1nc1ccccc12 | 66.4 | > 100 | 59.2 | 53.1 | > 100 | > 100 | 35.2 | 65.7 | 39.5 | > 100 | 55.4 | 32.8 | 32 | > 100 | > 100 | 25.4 | – | 36.3 | 39.1 | 30.8
14 | O=C1Nc2ccccc2S/C1=C\c1cccc(C(F)(F)F)c1 | > 100 | > 100 | > 100 | > 100 | > 100 | > 100 | > 100 | > 100 | > 100 | > 100 | > 100 | > 100 | > 100 | > 100 | > 100 | > 100 | > 100 | > 100 | – | > 100
15 | C=CCCCC1SC2=C(CC)CCCN2C1=O (stereo not drawn) | > 100 | > 100 | > 100 | > 100 | > 100 | > 100 | > 100 | > 100 | > 100 | > 100 | > 100 | > 100 | > 100 | > 100 | > 100 | > 100 | > 100 | > 100 | > 100 | –
16 | COC(=O)Nc1nc2ccc(S(=O)(=O)n3nnc4ccccc43)cc2[nH]1 | > 100 | > 100 | > 100 | > 100 | > 100 | > 100 | > 100 | 36.1 | > 100 | > 100 | – | > 100 | > 100 | > 100 | > 100 | > 100 | > 100 | > 100 | > 100 | 21.4
17 | O=C1C(Cl)=C(N2C(=O)CCCC2=O)C(=O)c2ccccc21 | > 100 | 4.42 | 95.3 | 33.4 | 49 | 46.2 | 21 | 31.9 | 23 | 25.6 | > 100 | 37.4 | > 100 | 6.54 | 37.5 | 23.9 | – | 50.5 | 36 | > 100
18 | CN(C)c1nc2n(CCO)c(-c3ccccc3)c(-c3ccccc3)nc-2c(=O)n1 | > 100 | – | > 100 | > 100 | > 100 | > 100 | > 100 | > 100 | > 100 | > 100 | > 100 | > 100 | > 100 | > 100 | > 100 | > 100 | > 100 | > 100 | > 100 | > 100
19 | O=C1/C(=C/c2ccc(Cl)cc2)N=C(c2ccccc2)N1c1nc2ccccc2s1 | > 100 | 18.4 | > 100 | 97.1 | 88.2 | – | > 100 | > 100 | > 100 | > 100 | > 100 | – | 75.7 | > 100 | > 100 | > 100 | – | > 100 | > 100 | > 100
20 | Cc1ccc2nc(-c3ccc(-n4c(C)nc(=O)c(-c5ccc(F)cc5)c4C)cc3)sc2c1 | 28.4 | 34.2 | 35 | 32.9 | 35.4 | 33.8 | 28.4 | 23.2 | 30.6 | 34.4 | 41.6 | – | 96.9 | 45.4 | 26.4 | 42.9 | 32.5 | 28.8 | 32.2 | 27.4
21 | Cc1n[nH]c(=O)n1/N=C/c1cccs1 | > 100 | – | > 100 | > 100 | > 100 | > 100 | > 100 | > 100 | > 100 | > 100 | > 100 | > 100 | > 100 | > 100 | > 100 | > 100 | > 100 | > 100 | > 100 | > 100
22 | O=c1[nH]c(=O)n(C2OC(CO)C(O)C2O)c2ccsc12 (stereo not drawn) | > 100 | > 100 | > 100 | > 100 | > 100 | > 100 | > 100 | > 100 | > 100 | > 100 | > 100 | – | > 100 | > 100 | > 100 | – | > 100 | > 100 | > 100 | > 100
23 | NCCCCN(CCCN)C(=O)c1ccccc1 | > 100 | > 100 | > 100 | > 100 | > 100 | > 100 | > 100 | > 100 | > 100 | > 100 | > 100 | > 100 | > 100 | > 100 | > 100 | > 100 | – | > 100 | > 100 | > 100
24 | CCC1(CCSC(=N)N)C(=O)NC(=O)NC1=O | > 100 | > 100 | > 100 | > 100 | > 100 | > 100 | > 100 | > 100 | > 100 | > 100 | > 100 | > 100 | > 100 | > 100 | > 100 | > 100 | > 100 | > 100 | > 100 | –
25 | O=c1oc2nc(-c3ccccc3)cc(C(F)(F)F)c2n1Cc1ccccc1 | > 100 | – | > 60.4 | 9.48 | > 100 | > 100 | > 100 | > 30.3 | > 100 | > 100 | > 100 | > 100 | > 75.3 | > 100 | > 82.9 | > 100 | 98.5 | > 100 | > 59.6 | –
26 | O=C(O)c1ccccc1CC1Cc2ccc3c(c2C1=O)CCC3 (stereo not drawn) | > 100 | > 100 | > 100 | – | > 100 | > 100 | > 100 | > 100 | > 100 | > 100 | > 100 | > 100 | > 100 | > 100 | > 100 | > 100 | > 100 | > 100 | > 100 | > 100

From PubChem BioAssay (NCI)
